The numbers were not newly measured in patent US10335452B2, “Method of treating patients with hepatorenal syndrome type 1” (Mallinckrodt Hospital Products IP Limited, priority 2014, dated 2019), which cites them from elsewhere.

The conditions of data set [1]: in vivo.
Data set [2] concerns HRS-1 patients. As to conditions: each listed reaction occurred in more than this share of patients.

Structures are written as SMILES. Positions of bridges follow the written chain, without caps; N, C: chain ends. Residues, ends and D or L forms follow the SMILES beside them.

Regarding `NC(=O)CC[C@@H]1NC(=O)[C@H](Cc2ccccc2)NC(=O)[C@H](Cc2ccc(O)cc2)NC(=O)[C@@H](N)CSSC[C@@H](C(=O)N2CCC[C@H]2C(=O)N[C@@H](CCCN=C(N)N)C(=O)NCC(N)=O)NC(=O)[C@H](CC(N)=O)NC1=O` [vasopressin], the duration of action in data set [1] was 30 to 60 min.

In the case of `NCCCC[C@H](NC(=O)[C@@H]1CCCN1C(=O)[C@@H]1CSSC[C@H](NC(=O)CNC(=O)CNC(=O)CN)C(=O)N[C@@H](Cc2ccc(O)cc2)C(=O)N[C@@H](Cc2ccccc2)C(=O)N[C@@H](CCC(N)=O)C(=O)N[C@@H](CC(N)=O)C(=O)N1)C(=O)NCC(N)=O` [terlipressin, N—[N—(N-glycylglycyl)glycyl]-8-L-lysinevasopressin] (H-GGGCYFQNCPKG-NH2; disulfide 4-9 (inferred)), the duration of action in data set [1] is 120 to 600 min. Further, the “Adverse reaction, share of patients (vomiting, abdominal pain, nausea, diarrhea, intestinal ischemia, dyspnea, sneezing, pulmonary edema and fluid overload)” value in data set [2] is “more than 10%”.
